Measurements taken from ChEMBL document CHEMBL1641370, “Novel 6,7,8,9-tetrahydro-5H-1,4,7,10a-tetraaza-cyclohepta[f]indene analogues as potent and selective 5-HT(2C) agonists for the treatment of metabolic disorders” (Bioorg Med Chem Lett, 2011).

Experiments:
[1] = molecular target: T1, 5-hydroxytryptamine receptor 2C (Homo sapiens) (UniProt P28335); test: Agonist activity at human recombinant 5HT2C receptor expressed in CHOK1 cells assessed as induction of intracellular calcium release by FLIPR assay relative to 5-HT; format: functional, cell-based; settings: CHO-K1
T1 sequence (whole entry): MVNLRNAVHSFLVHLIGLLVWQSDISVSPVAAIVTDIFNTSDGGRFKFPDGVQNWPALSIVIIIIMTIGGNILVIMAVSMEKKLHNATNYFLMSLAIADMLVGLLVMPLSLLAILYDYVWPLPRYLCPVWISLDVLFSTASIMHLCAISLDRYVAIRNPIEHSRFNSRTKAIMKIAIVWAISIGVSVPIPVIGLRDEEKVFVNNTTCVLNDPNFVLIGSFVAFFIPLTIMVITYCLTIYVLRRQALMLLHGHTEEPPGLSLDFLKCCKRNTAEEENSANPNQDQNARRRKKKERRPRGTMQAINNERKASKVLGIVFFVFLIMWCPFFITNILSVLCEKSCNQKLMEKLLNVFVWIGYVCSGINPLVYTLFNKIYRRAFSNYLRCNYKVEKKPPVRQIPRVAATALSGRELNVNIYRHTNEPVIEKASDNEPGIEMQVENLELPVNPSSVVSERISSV

[2] = molecular target: T2, 5-hydroxytryptamine receptor 2B (Homo sapiens, UniProt P41595); test: Agonist activity at human recombinant 5HT2B receptor expressed in CHOK1 cells assessed as induction of intracellular calcium release by FLIPR assay relative to 5-HT; format: functional, cell-based; settings: CHO-K1
T2 sequence (P41595 whole entry): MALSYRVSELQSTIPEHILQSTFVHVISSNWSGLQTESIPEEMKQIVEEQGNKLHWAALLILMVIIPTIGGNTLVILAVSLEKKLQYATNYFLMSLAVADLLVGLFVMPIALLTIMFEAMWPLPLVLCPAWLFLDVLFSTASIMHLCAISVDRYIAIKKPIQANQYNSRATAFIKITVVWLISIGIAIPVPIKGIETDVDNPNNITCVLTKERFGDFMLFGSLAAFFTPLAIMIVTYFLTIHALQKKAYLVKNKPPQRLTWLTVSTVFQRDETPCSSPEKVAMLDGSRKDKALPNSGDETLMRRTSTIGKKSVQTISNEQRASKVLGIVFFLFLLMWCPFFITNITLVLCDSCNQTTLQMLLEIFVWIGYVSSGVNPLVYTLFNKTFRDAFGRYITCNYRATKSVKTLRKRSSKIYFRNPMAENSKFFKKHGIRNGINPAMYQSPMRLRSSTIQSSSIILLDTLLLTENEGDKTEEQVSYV

[3] = molecular target: T3, 5-hydroxytryptamine receptor 2A (Homo sapiens, UniProt P28223); test: Agonist activity at human recombinant 5HT2A receptor expressed in CHOK1 cells assessed as induction of intracellular calcium release by FLIPR assay relative to 5-HT; format: functional, cell-based; settings: CHO-K1
T3 sequence (P28223 whole entry): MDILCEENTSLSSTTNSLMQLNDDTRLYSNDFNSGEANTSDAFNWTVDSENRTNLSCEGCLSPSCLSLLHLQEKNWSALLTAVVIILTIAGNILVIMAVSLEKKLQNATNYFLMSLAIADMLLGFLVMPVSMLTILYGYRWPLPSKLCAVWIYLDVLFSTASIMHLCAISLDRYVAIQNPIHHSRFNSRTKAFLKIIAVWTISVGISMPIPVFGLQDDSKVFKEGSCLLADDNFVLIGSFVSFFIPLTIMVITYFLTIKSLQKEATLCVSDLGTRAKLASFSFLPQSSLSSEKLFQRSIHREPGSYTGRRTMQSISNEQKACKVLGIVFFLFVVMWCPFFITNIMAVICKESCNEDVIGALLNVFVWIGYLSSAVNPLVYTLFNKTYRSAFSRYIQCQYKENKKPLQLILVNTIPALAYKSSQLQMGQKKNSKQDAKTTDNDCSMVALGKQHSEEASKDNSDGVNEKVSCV

[4] = molecular target: T2, 5-hydroxytryptamine receptor 2B; test: Agonist activity at human recombinant 5HT2B receptor expressed in CHOK1 cells assessed as induction of intracellular calcium release by FLIPR assay; format: functional, cell-based, CHO-K1
[5] = molecular target: T4, 5-hydroxytryptamine receptor 2C (Homo sapiens, UniProt P28335); test: Agonist activity at human recombinant 5HT2C receptor expressed in CHOK1 cells assessed as induction of intracellular calcium release by FLIPR assay; format: functional, cell-based, CHO-K1
T4 sequence (P28335 whole entry): T1 sequence (whole entry)

[6] = molecular target: T3, 5-hydroxytryptamine receptor 2A; test: Agonist activity at human recombinant 5HT2A receptor expressed in CHOK1 cells assessed as induction of intracellular calcium release by FLIPR assay; format: functional, cell-based, CHO-K1
hERG (KCNH2) = hERG (KCNH2) (Homo sapiens, UniProt Q12809); test: Inhibition of human ERG expressed in CHO cells at 10 uM by whole cell patch-clamp technique; format: cell-based; settings: CHO cells expressing human ERG
Chain of hERG (KCNH2) (Q12809 whole entry): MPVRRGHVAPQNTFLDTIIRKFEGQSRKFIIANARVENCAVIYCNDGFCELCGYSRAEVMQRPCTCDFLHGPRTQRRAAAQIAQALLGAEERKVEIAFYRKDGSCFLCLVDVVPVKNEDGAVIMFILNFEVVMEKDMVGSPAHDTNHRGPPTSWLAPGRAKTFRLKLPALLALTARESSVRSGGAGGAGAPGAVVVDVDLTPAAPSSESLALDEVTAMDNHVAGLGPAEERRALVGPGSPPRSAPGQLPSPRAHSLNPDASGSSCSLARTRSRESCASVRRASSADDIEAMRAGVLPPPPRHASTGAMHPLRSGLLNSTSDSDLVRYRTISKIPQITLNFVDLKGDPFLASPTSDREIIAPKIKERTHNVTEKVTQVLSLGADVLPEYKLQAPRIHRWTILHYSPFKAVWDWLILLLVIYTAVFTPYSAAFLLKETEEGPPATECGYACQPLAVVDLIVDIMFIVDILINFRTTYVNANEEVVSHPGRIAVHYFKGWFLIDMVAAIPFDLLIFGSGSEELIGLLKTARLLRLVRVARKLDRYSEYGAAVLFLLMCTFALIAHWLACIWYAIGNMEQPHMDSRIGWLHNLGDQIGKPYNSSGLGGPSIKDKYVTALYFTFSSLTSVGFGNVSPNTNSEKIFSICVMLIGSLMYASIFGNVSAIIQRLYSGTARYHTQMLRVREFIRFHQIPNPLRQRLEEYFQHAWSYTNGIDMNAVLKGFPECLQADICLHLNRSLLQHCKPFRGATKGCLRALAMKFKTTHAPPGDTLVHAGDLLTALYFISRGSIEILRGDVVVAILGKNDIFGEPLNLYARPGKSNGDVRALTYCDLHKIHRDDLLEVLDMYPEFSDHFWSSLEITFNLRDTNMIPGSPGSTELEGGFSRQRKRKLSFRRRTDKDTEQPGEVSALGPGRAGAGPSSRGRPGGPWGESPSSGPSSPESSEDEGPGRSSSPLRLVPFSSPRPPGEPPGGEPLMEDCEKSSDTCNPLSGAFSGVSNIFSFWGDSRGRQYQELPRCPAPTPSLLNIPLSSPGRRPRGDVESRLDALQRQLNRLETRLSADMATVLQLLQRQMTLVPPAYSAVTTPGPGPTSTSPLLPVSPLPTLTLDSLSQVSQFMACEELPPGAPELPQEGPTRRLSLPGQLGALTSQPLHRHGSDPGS

[7] = Permeability from apical to basolateral side of human Caco2 cells; format: ADME, cell-based; settings: caco-2, read-out: permeability
Caco-2 = test: Efflux ratio of permeability from […] of human Caco2 cells; format: ADME, cell-based
[8] = Ratio of drug level in CSF to fraction unbound in plasma of Wistar rat at 30 mg/kg, po at 2 hrs; format: ADME, organism-based; design: dose 30 mg/kg, route oral; settings: in vivo
[9] = Clearance in Wistar rat at 10 mg/kg, iv and 30 mg/kg, po; format: ADME, organism-based; settings: in vivo
Rattus norvegicus [10] = test: Antiobesity activity in Wistar rat cafteria diet model assessed as weight loss at 100 mg/kg, po after 3 day relative to control; format: functional
[11] = Mean residence time in Wistar rat at 30 mg/kg, po; format: ADME, organism-based; design: dose 30 mg/kg, route oral; settings: in vivo
[12] = Volume of distribution at steady state in Wistar rat at 10 mg/kg, iv and 30 mg/kg, po; format: ADME, organism-based; settings: in vivo, read-out: Vdss
Rattus norvegicus [13] = test: Antiobesity activity in Wistar rat cafteria diet model assessed as weight loss at 30 mg/kg, po after 3 day relative to control; format: functional
[14] = Mean residence time in Wistar rat at 10 mg/kg, iv; format: ADME, organism-based; design: dose 10 mg/kg, route intravenous; settings: in vivo
Rattus norvegicus [15] = test: Dose normalized AUC in Wistar rat at 30 mg/kg, po; format: ADME, organism-based; design: dose 30 mg/kg, route oral; settings: in vivo
[16] = molecular target: Serotonin 2 receptors; 5-HT2a & 5-HT2c (Homo sapiens) (UniProt P28223+P28335); test: Selectivity ratio of EC50 for human recombinant 5HT2A receptor to EC50 for human recombinant 5HT2C receptor
Chain of Serotonin 2 receptors; 5-HT2a & 5-HT2c (Homo sapiens) (P28223 whole entry, looked up, one chain of several): as the sequence (P28223 whole entry) above

Homo sapiens = species on record: Homo sapiens; test: Selectivity ratio of EC50 for human recombinant 5HT2B receptor to EC50 for human recombinant 5HT2C receptor

Emax [1] [%] | Emax [2] [%] | Emax [3] [%] | EC50 [4] [nM] | EC50 [5] [nM] | EC50 [6] [nM] | Papp A→B [7] [×10⁻⁶ cm/s] | Ratio (Caco-2) | Ratio [8] | clearance [9] [mL/min/kg] | MRT [11] [h] | Vd [12] [L/kg] | MRT [14] [h] | AUC (Rattus norvegicus [15]) [µM·h] | Ratio EC50 [16] | Ratio EC50 (Homo sapiens) | Compound | inhibition at 10 µM (hERG (KCNH2)) [%] | Activity (Rattus norvegicus [10]) [%] | Activity (Rattus norvegicus [13]) [%]
85 | 69 | 15 | 94 | 5 | 648 |  |  |  |  |  |  |  |  |  |  | Fc1ccccc1OC1CN(c2c3c(nc4ccnn24)CCNCC3)C1 |  |  | 
96 | 60 | 35 | 1180 | 188 | 2050 | 0.62 | 6.9 |  |  |  |  |  |  |  |  | CC(=O)N(C)c1ccc(OC2CN(c3c4c(nc5ccnn35)CCNCC4)C2)cc1 | 5 |  | 
88 | 43 | 9 | 215 | 65 | 40 | 10.1 | 2.1 |  |  |  |  |  |  |  |  | COc1cccc(OC2CN(c3c4c(nc5ccnn35)CCNCC4)C2)c1 | 97 |  | 
76 | 31 | 21 | 503 | 95 | 2630 | 10.4 | 1.3 | 0.15 | 14 | > 24 | 11 | 13 | 0.72 |  |  | COc1ccc(OC2CN(c3c4c(nc5ccnn35)CCNCC4)C2)cc1 | 93 | 3.3 | 3.2
99 | 82 | 86 | 73 | 8.4 | 762 |  |  |  |  |  |  |  |  |  |  | O=C1Cc2cc(OC3CN(c4c5c(nc6ccnn46)CCNCC5)C3)ccc2N1 | 11 |  | 
104 | 97 | 62 | 602 | 63 | 138 |  |  |  |  |  |  |  |  |  |  | CCNc1c2c(nc3ccnn13)CCNCC2 |  |  | 
110 | 36 | 15 | 2240 | 764 | 2310 |  |  |  |  |  |  |  |  |  |  | c1cc2nc3c(c(N4CCCC4)n2n1)CCNCC3 |  |  | 
78 | 23 | 5 | 13 | 25 | 32 | 7.9 | 1.6 |  |  |  |  |  |  |  |  | Fc1cccc(OC2CN(c3c4c(nc5ccnn35)CCNCC4)C2)c1 | 93 |  | 
99 | 73 | 94 | 1480 | 211 | 63 |  |  |  |  |  |  |  |  |  |  | c1cncc(OC2CN(c3c4c(nc5ccnn35)CCNCC4)C2)c1 |  |  | 
105 | 69 |  | 842 | 362 |  |  |  |  |  |  |  |  |  |  |  | CCN(C)c1c2c(nc3ccnn13)CCNCC2 |  |  | 
103 | 97 | 51 | 94 | 5.4 | 2350 |  |  |  |  |  |  |  |  | > 100 | < 20 | c1cc2nc3c(c(N4CCC4)n2n1)CCNCC3 |  |  | 
95 | 58 | 22 | 218 | 18 | 7770 | 13.3 | 2.3 |  |  |  |  |  |  |  |  | c1ccc(OC2CN(c3c4c(nc5ccnn35)CCNCC4)C2)cc1 | 81 |  | 
95 | 43 | 8 | 163 | 23 | 3 |  |  |  |  |  |  |  |  |  |  | Fc1ccc(OC2CN(c3c4c(nc5ccnn35)CCNCC4)C2)cc1 | 95 |  | 
84 | 89 | 48 | 379 | 84 | 2680 |  |  |  |  |  |  |  |  |  |  | COc1ccccc1OC1CN(c2c3c(nc4ccnn24)CCNCC3)C1 | 88 |  | 
102 | 79 | 27 | 1160 | 574 | 1230 |  |  |  |  |  |  |  |  |  |  | c1cc(OC2CN(c3c4c(nc5ccnn35)CCNCC4)C2)ccn1 |  |  | 
93 | 71 | 29 | 706 | 37 | 5170 | 10.3 | 2.2 |  |  |  |  |  |  |  |  | c1ccc(OC2CN(c3c4c(nc5ccnn35)CCNCC4)C2)nc1 | 78 |  | 
139 | 28 | 10 | 2850 | 4560 | 585 |  |  |  |  |  |  |  |  |  |  | c1cc2nc3c(c(N4CCCCC4)n2n1)CCNCC3 |  |  | 
